Data on 28 compounds can be found in ChEMBL document CHEMBL1151905, “Discovery of 5-substituted 2-amino-4-chloro-8-((4-methoxy-3,5-dimethylpyridin-2-yl)methyl)-7,8-dihydropteridin-6(5H)-ones as potent and selective Hsp90 inhibitors” (Bioorg Med Chem Lett, 2009).

For orientation: IC50 means the point on the concentration scale where inhibition reaches its midpoint. What is called pIC50 is −log10 of the IC50, conventionally taken in molar units. Lower therefore signals a large IC50. A word on the half-life: it is the time needed for the level to fall by half in the phase considered. Read a high half-life as slow decline. Usually bioavailability stands for the share of a dose that reaches the circulation, judged against a reference dose that is usually intravenous. As usually defined, the solubility is the concentration that dissolves in the medium under given conditions.

For one series, the target named is Heat shock protein HSP90 (Homo sapiens, UniProt P07900+P08238). Briefly: Inhibition of HSP90 in human SKBR3 cells assessed as induction of Her2 degradation. The series is classed as cell-based. The settings on record: sk-br-3.
For another series, the system named is BT-474. Briefly: Growth inhibition of human BT474 cells. The series is classed as functional, cell-based.
Series [1] has as its system HT-29. Briefly: Growth inhibition of human HT-29 cells. The series is classed as functional, cell-based.
Series [2] can be described thus: Metabolic stability in rat liver microsomes. The format is ADME, Microsome. (Liver microsomes are vesicles of endoplasmic reticulum, rich in cytochrome P450 enzymes.)
A short description of series [3]: Metabolic stability in mouse liver microsomes. The format is ADME, Microsome.
A short description of series [4]: Inhibition of HSP90 by fluorescence polarization assay. Background: Fluorescence polarisation rises when a labelled molecule tumbles more slowly, as on binding a larger partner.
Another series relates to SK-BR-3. Nature of the series: Growth inhibition of human SKBR3 cells. The series is classed as functional, cell-based.
A short description of series [5]: Oral bioavailability in rat. The series is classed as ADME, organism-based. The settings on record: in vivo.
Series [6] can be described thus: Metabolic stability in human liver microsomes. The series is classed as ADME, Microsome.
A short description of series [7]: Aqueous solubility at pH 3. The series is classed as physicochemical.
The subject of series [8] is MCF7. Briefly: Growth inhibition of human MCF7 cells. The format is functional, cell-based.
Series [9] relates to HMEC. Briefly: Growth inhibition of HMEC cells. The series is classed as cell-based. The settings on record: Homo sapiens.
The test system of series [10] is HMEC. Nature of the series: Selectivity index, ratio of IC50 for HMEC cells to IC50 for human BT474 cells. The format is functional.
Series [11] relates to HMEC. Briefly: Selectivity index, ratio of IC50 for HMEC cells to IC50 for human SKBR3 cells. The format is functional.
The subject of series [12] is MCF7. Briefly: Selectivity index, ratio of IC50 for HMEC cells to IC50 for human MCF7 cells. The series is classed as functional.
The test system of series [13] is HT-29. Nature of the series: Selectivity index, ratio of IC50 for HMEC cells to IC50 for human HT-29 cells. The series is classed as functional.

pIC50: −log10 of the molar value. ≈ marks a conversion by molar mass, not a printed value.

`COc1nc(CN2CC(=O)N(CC(C)C)c3c(Cl)nc(N)nc32)c(Cl)c(OC)c1OC`: the IC50 at Heat shock protein HSP90 is over 5000 nM.
As for `COc1c(C)cnc(CN2CC(=O)Nc3c(Cl)nc(N)nc32)c1C`, the negative-log IC50 (pIC50) with BT-474 was 6.19; in the series on HT-29 [1], 5.93; in series [4], 6.06; with SK-BR-3 it was 6.41; with MCF7 [8], 5.83. The 50% inhibitory concentration (IC50) at Heat shock protein HSP90 is 570 nM. For the same compound, the half-life in [2], in series [3] and in series [6] was over 1 h each time. In series [5], this compound returned a bioavailability of 60%. In series [7], this compound displayed a solubility of 381 µM (≈ 133 µg/mL).
With `Cc1cnc(CN2CC(=O)N(CC(C)C)c3c(Cl)nc(N)nc32)c(C)c1Cl`, the pIC50 in the series with BT-474 was 6.62; in the series with HT-29 [1], 6.55; in the series on SK-BR-3, 6.96; with MCF7 [8], 6.33. The half-inhibitory concentration (IC50) at Heat shock protein HSP90 worked out at 590 nM.
On the same counts, the results for `COc1c(C)cnc(CN2CC(=O)N(C(=O)NCCN3CCOCC3)c3c(Cl)nc(N)nc32)c1C` are under 4.00, 5.92, under 5.30, 5.67 and over 10000 nM.
On the same counts, the results for `COc1c(C)cnc(CN2c3nc(N)nc(Cl)c3NC(=O)[C@@H]2CC(C)C)c1C` are 6.31, 6.16, 6.64, 6.03 and 370 nM.
`COc1c(C)cnc(Cn2c(=O)cnc3c(Cl)nc(N)nc32)c1C`: the IC50 at Heat shock protein HSP90 was over 10000 nM.
Regarding `COc1c(C)cnc(CN2c3nc(N)nc(Cl)c3NC(=O)[C@H]2C)c1C`, the negative-log IC50 (pIC50) is 6.39 in the series on BT-474; 6.33 in the series on HT-29 [1]; 6.40 in series [4]; 6.66 in the series with SK-BR-3; 6.10 in the series with MCF7 [8]. Also, the IC50 at Heat shock protein HSP90 was 350 nM.
In the case of `COc1c(C)cnc(CN2CCNc3c(Cl)nc(N)nc32)c1C`, the half-inhibitory concentration (IC50) on Heat shock protein HSP90 is over 5000 nM. This compound also showed a pIC50 in series [4] of under 5.30.
Take `COc1c(C)cnc(CN2CC(=O)N(C(C)C(=O)NCCN(C)C)c3c(Cl)nc(N)nc32)c1C` (stereo not drawn): the pIC50 was 7.22 with BT-474, 7.00 in the series with HT-29 [1], 7.52 in the series on SK-BR-3 and 6.92 in the series on MCF7 [8]. Moreover, the IC50 on Heat shock protein HSP90 amounted to 100 nM.
For the compound `COc1c(C)cnc(CN2CC(=O)N(CC(C)C)c3c(C)nc(N)nc32)c1C`, the IC50 on Heat shock protein HSP90 stood at 980 nM.
In the case of `COc1nc(N)nc2c1N(CC(C)C)C(=O)CN2Cc1ncc(C)c(OC)c1C`, the IC50 at Heat shock protein HSP90 amounted to 1070 nM.
As to `COc1c(C)cnc(CN2CC(OC3CCCC3)=Nc3c(Cl)nc(N)nc32)c1C`, the pIC50 was 8.00 with BT-474, 7.70 in the series on HT-29 [1], 8.30 in the series with SK-BR-3 and 7.40 with MCF7 [8]. On Heat shock protein HSP90, the 50% inhibitory concentration (IC50) is 10 nM.
On to `COc1c(C)cnc(CN2c3nc(N)nc(Cl)c3NC(=O)[C@@H]2C(C)C)c1C`, for which the negative-log IC50 (pIC50) is 6.12 in the series with BT-474; 5.97 in the series on HT-29 [1]; 5.67 in [4]; 6.37 in the series on SK-BR-3; 5.80 with MCF7 [8]. At Heat shock protein HSP90, the half-maximal inhibitory concentration (IC50) amounted to 650 nM.
Consider `COc1c(C)cnc(CN2c3nc(N)nc(Cl)c3N(C(C)C)C(=O)[C@@H]2C(C)C)c1C`, for which the pIC50 was 7.70 in the series with BT-474; 7.05 in the series on HT-29 [1]; 7.10 in series [4]; 8.30 with SK-BR-3; 7.40 in the series on MCF7 [8]. For the same compound, the half-inhibitory concentration (IC50) on Heat shock protein HSP90 was determined as 60 nM.
Regarding `COc1c(C)cnc(CN2CC(=O)N(CCN3CCCC3)c3c(Cl)nc(N)nc32)c1C`, the negative logarithm of the IC50 (pIC50) in the series on BT-474 is 6.28; in the series on HT-29 [1] it was 5.97; in series [4], 6.18; in the series on SK-BR-3, 6.52; in the series on MCF7 [8] it was 5.88. Besides, at Heat shock protein HSP90, the 50% inhibitory concentration (IC50) is 510 nM.
On to `COc1c(C)cnc(Cn2c(=O)c(=O)[nH]c3c(Cl)nc(N)nc32)c1C`, for which the IC50 at Heat shock protein HSP90 is over 5000 nM.
For `COc1c(C)cnc(CN2CC(=O)N(CCCN3CCOCC3)c3c(Cl)nc(N)nc32)c1C`, the negative-log IC50 (pIC50) was 5.74 in the series with BT-474, 5.53 with HT-29 [1], 5.95 in the series on SK-BR-3 and 5.59 in the series with MCF7 [8]. The IC50 on Heat shock protein HSP90 worked out at 1550 nM.
The corresponding values for `COc1c(C)cnc(CN2c3nc(N)nc(Cl)c3NC(=O)[C@@H]2C)c1C` are 6.33, 6.18, 6.60, 6.03 and 430 nM.
In the case of `COc1c(C)cnc(CN2c3nc(N)nc(Cl)c3N(CC(C)C)C(=O)[C@@H]2C)c1C`, the half-inhibitory concentration (IC50) at Heat shock protein HSP90 was over 5000 nM.
Consider `Cc1cnc(CN2CC(=O)N(CC(C)C)c3c(Cl)nc(N)nc32)c(C)c1Br`, for which the pIC50 in the series on BT-474 was 6.89; with HT-29 [1], 6.85; in [4], 7.22; in the series on SK-BR-3, 7.22; with MCF7 [8] it was 6.55; with HMEC [9], 6.74. For the same compound, the half-maximal inhibitory concentration (IC50) at Heat shock protein HSP90 was 100 nM.
Consider `COc1c(C)cnc(CN2c3nc(N)nc(Cl)c3NC(=O)[C@@H]2CCO)c1C`, for which the IC50 on Heat shock protein HSP90 is 280 nM. The negative-log IC50 (pIC50) in series [4] is 6.19.
Regarding `COc1c(C)cnc(CN2CC(=O)N(CCCC(C)C)c3c(Cl)nc(N)nc32)c1C`, the negative logarithm of the IC50 (pIC50) is 5.78 in the series on BT-474; 5.65 in the series with HT-29 [1]; 6.05 in [4]; 6.01 in the series with SK-BR-3; 5.51 in the series with MCF7 [8]. Further, on Heat shock protein HSP90, the IC50 is 1910 nM.
As to `COc1c(C)cnc(CN2CC(=O)N(C)c3c(Cl)nc(N)nc32)c1C`, the pIC50 was 6.02 in the series on BT-474; 5.83 in the series on HT-29 [1]; 6.02 in series [4]; 6.34 with SK-BR-3; 5.66 in the series on MCF7 [8]. In addition, the IC50 on Heat shock protein HSP90 is 930 nM.
As for `COc1ccnc(CN2CC(=O)N(CC(C)C)c3c(Cl)nc(N)nc32)c1OC`, the negative logarithm of the IC50 (pIC50) in the series with BT-474 was 7.52; with HT-29 [1] it was 7.40; with SK-BR-3, 8.00; in the series on MCF7 [8] it was 7.00; with HMEC [9], 6.62. Further, on Heat shock protein HSP90, the 50% inhibitory concentration (IC50) is 160 nM. In addition, the “Ratio IC50” value in the series on HMEC [10] came out at 6; in the series on HMEC [11], 6; with MCF7 [12], 2; with HT-29 [13], 6.
Consider `COc1c(C)cnc(CN2CC(=O)N(C3CCCC3)c3c(Cl)nc(N)nc32)c1C`, for which the negative-log IC50 (pIC50) is 6.54 in the series with BT-474, 6.48 with HT-29 [1], 6.92 in the series on SK-BR-3 and 6.09 in the series on MCF7 [8]. Also, the concentration for half-maximal inhibition (IC50) at Heat shock protein HSP90 was 110 nM.
For the compound `COc1c(C)cnc(CN2CC(=O)N(CC(C)C)c3c(Cl)nc(N)nc32)c1C`, the pIC50 in the series on BT-474 is 7.70; in the series on HT-29 [1], 7.40; in [4], 7.30; in the series on SK-BR-3 it was 8.00; in the series with MCF7 [8] it was 7.15; in the series with HMEC [9], 6.89. Besides, the IC50 at Heat shock protein HSP90 turned out to be 40 nM. Moreover, the “Ratio IC50” value in the series on HMEC [10] is 6; in the series with HMEC [11], 13; in the series with MCF7 [12] it was 2; with HT-29 [13], 3.
In the case of `COc1c(C)cnc(CN2CC(=O)N(C(C)C)c3c(Cl)nc(N)nc32)c1C`, the pIC50 in the series on BT-474 is 7.52; with HT-29 [1] it was 7.22; in series [4], 7.15; in the series with SK-BR-3, 7.70; in the series on MCF7 [8], 7.30; in the series with HMEC [9] it was 6.49. Moreover, the half-maximal inhibitory concentration (IC50) at Heat shock protein HSP90 was 50 nM.
Take `COc1c(C)cnc(CN2c3nc(N)nc(Cl)c3N(CC(C)C)C(=O)[C@@H]2C(C)C)c1C`: the IC50 on Heat shock protein HSP90 is over 5000 nM.
